This is an account of results in article PMC7083565, “In vitro metabolism, reaction phenotyping, enzyme kinetics, CYP inhibition and induction potential of ataluren” (Pharmacology Research & Perspectives, 2020).

One data set has as its target T1, CYP2B6 (Homo sapiens, UniProt P20813).
T1 construct: tissue XenoTech LLC, Celsis-In Vitro Technologies, or Tissue Transformation Technologies; host or cells: pooled human liver microsomes
T1 sequence (P20813 1-491): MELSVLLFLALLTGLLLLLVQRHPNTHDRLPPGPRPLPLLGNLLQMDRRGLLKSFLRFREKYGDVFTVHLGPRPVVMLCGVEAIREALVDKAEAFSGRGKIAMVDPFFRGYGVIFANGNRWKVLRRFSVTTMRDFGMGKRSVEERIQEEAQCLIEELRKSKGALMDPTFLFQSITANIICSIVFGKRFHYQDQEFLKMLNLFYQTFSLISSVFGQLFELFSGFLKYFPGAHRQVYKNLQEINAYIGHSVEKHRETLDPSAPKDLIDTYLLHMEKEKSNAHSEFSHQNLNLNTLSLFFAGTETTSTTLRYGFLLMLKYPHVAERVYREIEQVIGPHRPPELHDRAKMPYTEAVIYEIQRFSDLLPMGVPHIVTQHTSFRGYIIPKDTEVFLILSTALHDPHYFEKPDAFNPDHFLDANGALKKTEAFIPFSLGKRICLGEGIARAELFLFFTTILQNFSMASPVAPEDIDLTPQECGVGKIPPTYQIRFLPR
Nature of the data set: CYP inhibition in pooled human liver microsomes: CYP2B6. Particulars: CYP2B6, HLM, estimated, concentrations up to 400 μmol/L. The format is in vitro ADME. The protocol: The final concentration of each probe substrate was near the experimentally determined Km value for the indicated enzyme. Ataluren or prototypical CYP inhibitors (positive controls) was incubated (n = 3) with probe substrates and HLM in 100 mmol/L phosphate buffer (pH 7.4) in a total volume of approximately 0.25 mL, and the reactions were initiated by the addition of 1 mmol/L NADPH at 37°C. The reactions were carried out using previously established conditions to ensure linearity with respect to protein concentration and incubation time (Table S1). Incubations were stopped with the addition of ice‐cold acetonitrile. Metabolite formation in incubations with test compound and control inhibitors was assessed with LC‐MS/MS methods for each of the reaction products as described in Table S2. […] After 7 minutes incubation at 37°C, the reaction was stopped by the addition of ice‐cold acetonitrile, followed by membrane plate filtration. The filtrates were used for LC‐MS/MS analysis. […] IC50 values were determined by nonlinear regression with GraphPad Prism 5 using the following four‐parameter sigmoidal‐logistic IC50 equation: Fit=background+range-background/[1+I/IC50^slope]
Where, I is the inhibitor concentration, and background was set to 0 and range to 100, as percent of control values are utilized. K i was determined by nonlinear regression with GraphPad Prism 5 using best fit model.

A short description of data set [1]: Plasma protein binding (ultrafiltration), human. The class given is in vitro ADME. The procedure:
(§1) [^14C]‐Ataluren, at 50, 500, 5000, and 50 000 ng/mL or 0.175, 1.75, 17.5, and 175 µM, in male mouse, rat, dog, monkey, and human plasma, was incubated (n = 3) at 37°C for approximately 15 minutes, transferred into Centrifree® Micropartition Units (30 000 Da molecular weight cutoff, 1 mL capacity; Amicon Inc), and centrifuged at 37°C and 2000 g for approximately 10 minutes so that the amount of the sample filtered was approximately ≤ 20% of the total volume. After centrifugation, the entire ultrafiltrate was weighed and analyzed for radioactivity using liquid scintillation counting. The percent bound = (1‐Cu/Cm)×100, where Cu is the concentration of radioactivity in the ultrafiltrate and Cm is the concentration of radioactivity in the plasma before centrifugation.

Another data set has as its system CYP2A6. Nature of the data set: CYP induction in primary human hepatocytes: CYP2A6. The class given is in vitro ADME. Particulars: Coumarin 7-hydroxylase, 48 hours, n=3. The procedure: (§2) Human hepatocytes isolated from three Caucasian males were transferred to 48‐well collagen‐coated plates at 0.14 × 10^6 cells/well in planting media for attachment. After attachment, planting media was replaced with sandwich media and the cells were incubated until clusters were established. […] The incubation solutions were aspirated and replaced with freshly prepared incubation solutions containing ataluren for an additional 24 hours. […] The incubation solutions were then aspirated and 150 µL of K‐H buffer containing CYP substrates were added. The hepatocytes were incubated for 30 minutes for CYP2C8 (10 µmol/L amodiaquine), 1 hour for CYP3A4 (125 µmol/L testosterone), and 4 hours for CYPs 1A2 (100 µmol/L phenacetin), 2A6 (100 µmol/L coumarin), 2B6 (150 µmol/L bupropion), 2C9 (50 µmol/L tolbutamide), 2C19 (100 µmol/L S‐mephenytoin), and 2E1 (300 µmol/L chlorzoxazone) activity assays. The reactions were stopped by the addition of 0.15 mL of ice‐cold methanol except that coumarin‐treated cells were incubated with β‐glucuronidase and aryl sulfatase for additional 1 hour to free 7‐hydroxycoumarin before the addition of 0.2 mL of ice‐cold methanol. Metabolite formation in incubations with test compounds and control inhibitors was assessed with validated LC‐MS/MS methods for each of the reaction products as described in Table S2. Enzymatic activity for each CYP was calculated using the absolute amount of metabolite formed (pmol) divided by hepatocytes in the incubation (million cells) and the incubation time (minute). The relative fold induction in enzymatic activity was calculated by comparing the rate of metabolite formation for treatment groups to that of the solvent control group (reported as vehicle control%) or positive control group (reported as positive control%).

A short description of data set [2]: Glucuronidation in liver microsomes (tissue comparison). The class given is in vitro ADME, human. Particulars: 10 μmol/L, 60 minutes, n = 1. (Microsomes from liver hold many membrane-bound enzymes, among them those of drug oxidation.)
A further data set relates to CYP2E1. Nature of the data set: CYP induction in primary human hepatocytes: CYP2E1. The class given is in vitro ADME. Particulars: male, 48 h, 4 µM. The procedure:
as §2, with “The hepatocytes were incubated for 30 minutes for CYP2C8 (10 µmol/L amodiaquine), 1 hour for CYP3A4 (125 µmol/L testosterone), and 4 hours for CYPs 1A2 (100 µmol/L phenacetin), 2A6 (100 µmol/L coumarin), 2B6 (150 µmol/L bupropion), 2C9 (50 µmol/L tolbutamide), 2C19 (100 µmol/L S‐mephenytoin), and 2E1 (300 µmol/L chlorzoxazone) activity assays. The reactions were stopped by the addition of 0.15 mL of ice‐cold methanol except that coumarin‐treated cells were incubated with β‐glucuronidase and aryl sulfatase for additional 1 hour to free 7‐hydroxycoumarin before the addition of 0.2 mL of ice‐cold methanol.” left out

Data set [3] is described as follows: Plasma protein binding (ultrafiltration), mouse. Particulars: male, C57/BL10, 50 to 50 000 ng/mL, mean ± SD, n = 3, read-out: percentage protein binding (converted). The format is in vitro ADME. The protocol: as §1

Take `O=C(O)c1cccc(-c2noc(-c3ccccc3F)n2)c1` [ataluren, Ataluren]: the IC50 – broadly, the concentration needed to halve the response being measured – at CYP2B6 was more than 400 µM. Moreover, the “free fraction in human plasma” value in data set [1] (as measured) came out at 0.4%. Further, the fraction unbound at 15 min in data set [1] (male, 50 to 50 000 ng/mL, mean ± SD, n = 3, read-out: percentage protein binding (converted)) was 0.004; in data set [3], 0.016. In addition, the “Vehicle control %, Mean” value in the data set with CYP2A6 (ataluren 4 µM) is listed as 100%; with CYP2A6 (ataluren 40 µM) it was 111%; with CYP2A6 (ataluren 400 µM), 118%; with CYP2E1, 99.0%. The ataluren loss in data set [2] was 31.4%.
